Laboratory results reported in paper PMC5920098, “Identification of the allosteric P2X7 receptor antagonist [^11C]SMW139 as a PET tracer of microglial activation” (Scientific Reports, 2018).
“Also recorded” adds a separate entry of the source.

Key:
[1] = biological target: T1, human P2X7 receptor (hP2X7R) (Homo sapiens, UniProt Q99572); assay: In vitro autoradiography on rat brain cryosections locally overexpressing hP2X7R; details: co-incubation with blocker 10 µM, tracer 28 nM, n = 2
T1 sequence (Q99572 1-595): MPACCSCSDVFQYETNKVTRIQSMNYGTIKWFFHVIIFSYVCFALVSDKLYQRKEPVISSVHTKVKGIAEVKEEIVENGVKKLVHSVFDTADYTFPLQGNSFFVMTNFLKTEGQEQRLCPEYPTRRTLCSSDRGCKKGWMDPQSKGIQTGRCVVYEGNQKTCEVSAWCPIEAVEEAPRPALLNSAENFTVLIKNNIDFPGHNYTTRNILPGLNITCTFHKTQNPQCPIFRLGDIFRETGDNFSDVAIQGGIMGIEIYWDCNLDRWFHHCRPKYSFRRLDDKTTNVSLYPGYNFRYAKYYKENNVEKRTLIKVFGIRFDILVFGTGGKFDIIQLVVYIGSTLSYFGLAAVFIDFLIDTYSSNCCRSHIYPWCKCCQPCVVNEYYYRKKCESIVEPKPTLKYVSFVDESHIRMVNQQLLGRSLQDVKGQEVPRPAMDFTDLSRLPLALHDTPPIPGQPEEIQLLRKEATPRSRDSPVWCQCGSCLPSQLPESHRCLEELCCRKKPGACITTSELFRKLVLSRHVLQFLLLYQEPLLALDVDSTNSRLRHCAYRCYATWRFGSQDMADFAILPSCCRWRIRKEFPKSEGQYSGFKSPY
Experimental: Snap frozen brain tissue was cut on a cryostat into 20 μm sections.
Stereotactic injection of viral vector
Female Wistar rats (n=7) were anaesthetised by intraperitoneal (i.p.)
injection of ketamine (75 mg·kg-1); Ketalar, Pfizer, Brussels, Belgium) and medetomidin (1 mg·kg-1;
Domitor, Pfizer) and positioned in a stereotactic head frame (Stoelting, Wood Dale, IL, USA). Right and
left striatum were injected with 4 µL of the hP2X7R vector (rAAV_3flag-hP2X7R) and of the control
vector (rAAV_3flag-eGFP), respectively, at a rate of 0.25 µL·min-1, using a 30-gauge needle connected
to a 10 µL Hamilton syringe. Coordinates used for striatal injection of the hP2X7R vector were:
anteroposterior 0 cm, lateral -0.28 cm and dorsoventral -0.64 cm relative to bregma. Coordinates
used for striatal injection of the eGFP vector were: anteroposterior 0 cm, lateral +0.28 cm and
dorsoventral -0.64 cm relative to bregma. After injection, the needle was kept in place for another 5
minutes before removing it slowly. To reverse the anaesthesia, the rats were injected intraperitoneally
with 0.5 mg·kg-1 atipamezol (Antisedan, Orion Pharma, Newburry, Berkshire, UK).
Rats were sacrificed for in
vitro autoradiography at 3 (n=2) and 12 (n=5) weeks after vector injection.
Snap frozen brains of female Wistar rats (rAAV_3flag-hP2X7R in right striatum; rAAV_3flag-eGFP in left
striatum; sacrificed 3 weeks (n = 2) or 12 weeks (n = 5) after vector injection) were cut on a Leica
CM3050 S cryostat (Leica Biosystems, Nussloch, Germany) at -19 °C in transversal sections of 20 µm,
thaw-mounted on SuperFrostTM Plus (Thermo Fisher Scientific, Waltham, MA, USA) object glasses,
dried overnight on silica at 4 °C and then stored at -20 °C until use.
Upon use, sections were thawed to room temperature for an hour
before washing the sections in 5 mM Tris-HCl buffer (pH 7.4) at room temperature (3x 5 min). Sections
were dried in a cold stream of air before incubation (30 min) with 5 mM Tris-HCl buffer (pH 7.4)
concentration. After incubation, sections were washed (3x 1.5 min) in ice-cold 5 mM Tris-HCl buffer
(pH 7.4) followed by a dip in ice-cold demineralised water. Sections were dried in a stream of air and
then exposed to a storage phosphor screen (BAS-IP SR 2040 E, GE Healthcare Europe GmbH,
Eindhoven, the Netherlands) and the screen was read out on a Typhoon FLA 7000 phosphor imager
(GE Healthcare Europe GmbH, Eindhoven, the Netherlands).
quantified using ImageQuantTL Analysis Toolbox (version 8.1, GE Healthcare). In case of the rat brain
sections, regions of interest (ROIs) were defined around the striatum. […] Results are expressed as mean intensity, or as
percentage of tracer binding, relative to total tracer binding in the contralateral striatum. Experiments
with rAAV_3flag-hP2X7R injected rat brains were performed as a duplicate of quadruplicates.
Statistical analysis of quantitative autoradiography data (unpaired t test, two-tailed) was performed

[2] = Extended single microdose toxicity study in Wistar rats; format: in vivo
Experimental: A single microdose toxicity study for P2X7R antagonist SMW139 was performed according to EMEA guideline EMA/CPMP/ICH/286/1995 (December 2009) in healthy Wistar rats (male and female) at a dose of 0.12 mg·kg^−1. Rats were administered SMW139 or vehicle and parameters assessed post-dose were clinical signs and mortality, changes in body weight, food consumption, terminal haematology, coagulation and clinical chemistry parameters, gross pathology and organ weights. Further details are described in the Supplementary Information. […]
Extended single microdose toxicity study
A single microdose toxicity study according to EMEA guideline EMA/CPMP/ICH/286/1995 (December 2009) was performed in healthy Wistar rats at a 1000 times higher dose than the maximal dose […]
minimum specific activity of 18.5 GBq·µmol-1). Animals were allowed to acclimatise for 10 days, group-housed and in an enriched environment with food and water available ad libitum, and with a 12-hour light-dark cycle in a temperature controlled room. Post-dosing, animals were single-housed, but with the ability to communicate. SMW139 was formulated in 6.7% EtOH in acetate/citrate buffer (citric acid monohydrate (8 mg·mL-1), sodium citrate dehydrate (16 mg·mL-1) and sodium acetate trihydrate (7 mg ·mL-1); pH 5.2) with 2.5% Tween-80. Male and female Wistar rats (244-355 g; Charles River, Tranent, Edinburgh, United Kingdom) were injected intravenously via the tail vein under light isoflurane anaesthetics with formulated SMW139 (1 mL·kg-1, corresponding to a single dose of 0.12 mg·kg-1; female n = 10; male n = 10), or vehicle only (1 mL·kg-1; female n = 10; male n = 10) and animals were sacrificed 24 hours (SMW139; female n = 5; male n = 5; vehicle; female n = 5; male n = 5) or 14 days (SMW139; female n = 5; male n = 5; vehicle; female n = 5; male n = 5) post-dose by exsanguination

[3] = Ex vivo metabolite analysis (plasma and brain) in healthy male Wistar rats; set-up: species or system rat
Experimental: In vivo stability of analogues [^11C]1–3 and [^11C]SMW139 was assessed in healthy male Wistar rats at 15 and 45 minutes after injection of 30–40 MBq of formulated tracer. […] Results obtained in plasma correspond with previously reported stability results in rat liver microsomes. A higher level of intact tracer was found in brain (Table 3) for [^11C]1 and [^11C]SMW139 compared with [^11C]2 and [^11C]3. Despite optimisation of the extraction method, the percentage of total radioactivity that could be extracted from brain homogenates was not optimal for all four compounds (59 ± 6% for [^11C]1; 58 ± 7% for [^11C]2; 61 ± 4% for [^11C]3; 62 ± 3% for [^11C]SMW139). Therefore, based on its highest stability in plasma in vivo, [^11C]SMW139 was selected for further in vivo studies. As imaging studies were performed in female rats, plasma metabolites were also determined in two female rats, and no differences were found between plasma metabolism of [^11C]SMW139 in male and female rats (Table S1; Supplementary Information).
For each of the carbon-11 labelled benzamide analogues [^11C]1–3 and [^11C]SMW139, a biodistribution study and metabolite analysis in healthy male Wistar rats was performed, as described in detail in the Supplementary Information. Briefly, tracer distribution in blood, brain, and peripheral organs was measured at 5, 15, 30 and 45 min after intravenous injection of 13–23 MBq of formulated tracer. Metabolite analysis was performed at 15 and 45 min after intravenous injection of 30–40 MBq of formulated tracer in both blood plasma and brain. […]
Ex vivo metabolite analysis
Healthy male and female Wistar rats (254-440 g) were injected with 30-40 MBq (at start of experiment) of formulated tracer in the tail vein under isoflurane anaesthesia. Rats were sacrificed at 15 and 45 min (n = 3 per time point). Blood samples were obtained and the brain was excised. Blood samples were collected in heparin tubes (BD Vacutainer NH 119 I.U., 7 mL, BD Vacutainer Systems, Plymouth, UK) and centrifuged at 4,000 rpm for 5 min at 4 °C (Hettich Universal 32, Andreas Hettich GmbH & Co.KG, Tuttlingen, Germany). Plasma supernatant was separated from blood cells and loaded onto a tC18 Sep-Pak (Waters, Milford, MA, USA), followed by washing with 3 mL of water to obtain the polar fraction. The non-polar fraction was then eluted with 2 mL of MeOH and 1 mL of water and further analysed by HPLC. The brain was put in a falcon tube containing 4 mL MeCN/H2O (50:50 v/v) and homogenised with a disperser (IKA T18 B Ultra-Turrax, IKA®-Werke GmbH & Co.KG, Staufen, Germany) before centrifugation (5 min, 4,000 rpm, 20 °C, Hettich Universal 32). Supernatant was separated from brain precipitate and analysed by HPLC. Analytical HPLC was performed with Dionex (Sunnyvale, CA, USA) UltiMate 3000 HPLC equipment with Chromeleon software (version 6.8) on a Gemini C18 5-µm (10 x 250 mm) column (Phenomenex, Torrance, CA, USA) with gradient and a mixture of MeCN (A) and 0.1% DIPA in water (B) as eluent according to the following scheme: 0 min, […]
0.25 mL·min-1. All separate fractions were counted for radioactivity in a Wizard Gammacounter 1470 or 2480 (Wallac/PerkinElmer, Waltham, MA, USA).

[4] = LogDoct,7.4 by shake-flask method (1-octanol / 0.2 M phosphate buffer pH 7.4); format: physicochemical; details: mean ± SD, read-out: LogDoct,7.4 (n = 3)
Experimental: The LogDoct,7.4 of analogues [^11C]1–3 and [^11C]SMW139 ([^11C]4) was determined using the shake-flask method (partitioning between 1-octanol and 0.2 M phosphate buffer (pH 7.4)). Determined LogDoct,7.4 values (Table 1) show the same trend as LogD values reported by Wilkinson et al.[10].
LogDoct,7.4 of [^11C]1–3 and [^11C]SMW139 was determined by the shake-flask method as described in the Supplementary Information.
Analytical HPLC chromatogram of [11C]SMW139 formulation (Platinum C18, MeCN/H2O/TFA 45:55:0.1, 1 […]
Determination of LogDoct,7.4
The distribution of radiolabelled compound between 1-octanol and 0.2 M phosphate buffer (pH = 7.4) was measured at room temperature. Briefly, 1 mL of a 20 MBq·mL-1 solution of radiolabelled compound in 0.2 M phosphate buffer (pH = 7.4) was mixed with 1 mL of 1-octanol for 1 min using a vortex mixer. After a settling period of 30 min, three samples of 100 μL were taken from both layers.
All samples were counted for radioactivity in a Wallac Universal Gammacounter 1282 (PerkinElmer, Waltham, MA, USA). The LogDoct,7.4 value was calculated according to LogDoct,7.4 = 10Log(Aoct/Abuffer), where Aoct and Abuffer represent average radioactivity counts of the three 1-octanol and the three […]
(1 picture or pasted object on this page, not shown here)

[5] = rat plasma, 15 min p.i., male Wistar rats
[6] = rat plasma, 45 min p.i., male Wistar rats

Block of [^11C]SMW139 binding in rAAV_3flag-hP2X7R striatum [1] | Intact tracer (%) ([3]; rat brain, 15 min p.i.) | Intact tracer (%) ([3]; rat brain, 45 min p.i.) | Intact tracer (%) [3, 5] | Intact tracer (%) [3, 6] | logD [4] | SMILES | Food consumption ([2]; single i.v. dose 0.12 mg·kg^−1) | Haematology, coagulation and clinical chemistry parameters ([2]; single i.v. dose 0.12 mg·kg^−1) | Necropsy findings ([2]; single i.v. dose 0.12 mg·kg^−1) | Organ weights ([2]; single i.v. dose 0.12 mg·kg^−1) | Toxic / clinical effects ([2]; single i.v. dose 0.12 mg·kg^−1, male and female rats) | Body weight curves vs vehicle ([2]; single i.v. dose 0.12 mg·kg^−1, p ≥ 0.05)
79 ± 10% |  |  |  |  |  | COc1ccc(CC(=O)NC(NC(=NC#N)Nc2cccc3ncccc23)C(C)(C)C)cc1OC (stereo not shown) [A-740003, N-(1-{[(Cyanoimino)(5-quinolinylamino)methyl]amino}-2,2-dimethylpropyl)-2-(3,4-dimethoxyphenyl)acetamide, reference compound] |  |  |  |  |  | 
 |  |  |  |  |  | COc1ccc(Cl)c(C(=O)NCC23CC4(F)CC(F)(CC(F)(C4)C2)C3)c1 [SMW139] | stable in all groups | No treatment-related changes | no abnormalities suggesting a toxic effect | No significant differences in organ weights | no abnormalities, complications or toxic clinical effects were observed; also recorded: no adverse or toxic effects; also recorded: no toxic effects | did not differ between vehicle injected animals and animals injected with SMW139
 | 82 ± 1% | 76 ± 2% | 37 ± 5% | 25 ± 1% | 2.88 ± 0.14 | [11CH3]Oc1ccc(Cl)c(C(=O)NCC23CC4CC(CC(C4)C2)C3)c1 [[^11C]1] |  |  |  |  |  | 
 | 67 ± 5% | 32 ± 4% | 37 ± 7% | 15 ± 2% | 2.93 ± 0.02 | [11CH3]Oc1ccc(Cl)c(C(=O)NCC23CC4CC(CC(F)(C4)C2)C3)c1 [[^11C]2] |  |  |  |  |  | 
 | 62 ± 2% | 32 ± 2% | 35 ± 1% | 16 ± 1% | 2.71 ± 0.01 | [11CH3]Oc1ccc(Cl)c(C(=O)NCC23CC4CC(F)(CC(F)(C4)C2)C3)c1 [[^11C]3] |  |  |  |  |  | 
